From patent US12139477B2, “Compounds, salts thereof and methods for treatment of diseases” (ACADIA PHARMACEUTICALS INC., priority 2017, dated 2024)

target: 5HT2A (Homo sapiens, UniProt P28223); assay: Receptor Selection and Amplification (R-SAT) functional assay; format: cell-based; parameters: expressed in transfected cells; host or cells: NIH3T3 cells, pSI mammalian expression vector; conditions: NIH3T3 cells; Ki from IC50 by Cheng and Prussoff; read-out: 5-HT2a (pKi) (R-SAT) (converted)
Source text: Receptor Selection and Amplification (R-SAT) Assays. […] The IC50 determined in the RSAT assay was converted into a Ki value using the method of Cheng and Prussoff, Biochem Pharmacol., 1973 Dec. 1; 22(23):3099-108. pKi is the negative of the log(Ki).

Sequence of 5HT2A (P28223 whole entry): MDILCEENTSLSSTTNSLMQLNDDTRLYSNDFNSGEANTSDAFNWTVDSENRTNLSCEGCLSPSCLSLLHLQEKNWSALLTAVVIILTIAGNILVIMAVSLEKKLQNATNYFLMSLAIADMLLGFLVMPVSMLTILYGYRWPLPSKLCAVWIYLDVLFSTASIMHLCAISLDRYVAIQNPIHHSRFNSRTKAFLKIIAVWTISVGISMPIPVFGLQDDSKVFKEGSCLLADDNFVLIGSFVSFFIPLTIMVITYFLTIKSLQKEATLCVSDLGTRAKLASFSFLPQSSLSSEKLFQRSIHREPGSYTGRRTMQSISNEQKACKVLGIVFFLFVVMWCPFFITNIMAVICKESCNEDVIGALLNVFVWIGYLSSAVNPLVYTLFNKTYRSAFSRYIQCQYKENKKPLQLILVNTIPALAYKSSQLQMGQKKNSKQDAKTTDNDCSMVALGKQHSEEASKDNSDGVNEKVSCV

Row | Compound | Ki [nM]
1 | COc1ccc(CNC(=O)N(Cc2ccc(F)cc2)[C@H]2CCN(C)C[C@H]2F)c(OC)c1 (racemic) [Example 1, 1-[(2,4-dimethoxyphenyl)methyl]-3-[(3R,4S)-3-fluoro-1-methylpiperidin-4-yl]-3-[(4-fluorophenyl)methyl]urea; Trifluoroacetic Acid (1a) and 1-[(2,4-dimethoxyphenyl)methyl]-3-[(3S,4R)-3-fluoro-1-methylpiperidin-4-yl]-3-[(4-fluorophenyl)methyl]urea; Trifluoroacetic Acid (1b)] | 25.1
2 | CN1CCC(N(Cc2ccc(F)cc2F)C(=O)NCc2ccc([C@H](O)CO)cc2)CC1 (racemic) [Example 94, 1-[(2,4-difluorophenyl)methyl]-3-({4-[(1R)-1,2-dihydroxyethyl]phenyl}methyl)-1-(1-methylpiperidin-4-yl)urea; Trifluoroacetic Acid and 1-[(2,4-difluorophenyl)methyl]-3-({4-[(1S)-1,2-dihydroxyethyl]phenyl}methyl)-1-(1-methylpiperidin-4-yl)urea; Trifluoroacetic Acid] | 100
3 | CN1CC[C@@H](N(Cc2ccc(F)cc2F)C(=O)NCc2ccc(OC3CC3)cc2)[C@@H](F)C1 (racemic) [Example 117, 1-[(4-cyclopropoxyphenyl)methyl]-3-[(2,4-difluorophenyl)methyl]-3-[(3S,4R)-3-fluoro-1-methylpiperidin-4-yl]urea and 1-[(4-cyclopropoxyphenyl)methyl]-3-[(2,4-difluorophenyl)methyl]-3-[(3R,4S)-3-fluoro-1-methylpiperidin-4-yl]urea] | 0.398
4 | COc1ccc(CN(C(=O)NCc2ccc(OCC(C)C)cc2)C2CCN(C)CC2)c(OC)c1 [Example 2, 3-[(2,4-dimethoxyphenyl)methyl]-3-(1-methylpiperidin-4-yl)-1-{[4-(2-methylpropoxy)phenyl]methyl}urea] | 3160
5 | CC(C)COc1ccc(CNC(=O)N(Cc2ccc(F)cc2OCc2ccccc2)C2CCN(C)CC2)cc1 [Example 13b, 1-{[2-(benzyloxy)-4-fluorophenyl]methyl}-1-(1-methylpiperidin-4-yl)-3-{[4-(2-methylpropoxy)phenyl]methyl}urea] | 63.1
6 | CN1CCC(N(Cc2ccc(F)cc2F)C(=O)NCc2ccc3ncoc3c2)CC1 [Example 29] | 10
7 | CN1CCC(N(Cc2ccc(F)cc2F)C(=O)NCc2ccc3ocnc3c2)CC1 [Example 30] | 63.1
8 | CN1CCC(N(Cc2ccc(F)cc2F)C(=O)NCc2ccc3c(ccn3C)c2)CC1 [Example 31] | 6.31
9 | CN1CCC(N(Cc2ccc(F)cc2F)C(=O)NCc2ccc3c(c2)N(C)CCO3)CC1 [Example 32] | 7.94
10 | O=C(O)C(F)(F)F.[2H]C([2H])([2H])C(Oc1ccc(CNC(=O)N(Cc2ccc(F)cc2F)C2CCN(C)CC2)cc1)(C([2H])([2H])[2H])C([2H])([2H])[2H] [Example 46] | 0.794
11 | C[C@H](c1ccc(F)cc1F)N(C(=O)NCc1ccc(OC2CC2)cc1)C1CCN(C)CC1 [Example 47] | 126
12 | COc1ccc(CNC(=O)N(Cc2ccc(F)cc2F)C2CCN(C)CC2)cc1C#N [Example 48] | 100
13 | CN1CCC(N(Cc2ccc(F)cc2F)C(=O)NCc2ccc(F)cc2)CC1 [Example 49] | 6.31
14 | COc1ccc(CNC(=O)N(Cc2ccc(F)cc2F)C2CCN(C)CC2)c(OC)c1 [Example 50] | 100
15 | COc1ccc(CNC(=O)N(Cc2ccc(F)cc2F)C2CCN(C)CC2)c(Cl)c1 [Example 51] | 25.1
16 | COc1ccc(CNC(=O)N(Cc2ccc(F)cc2F)C2CCN(C)CC2)c(C(F)(F)F)c1 [Example 53] | 25.1
17 | COc1c(F)ccc(CNC(=O)N(Cc2ccc(F)cc2F)C2CCN(C)CC2)c1F [Example 54] | 7.94
18 | CN1CCC(N(Cc2ccc(F)cc2F)C(=O)NCc2cccc3c2CC(C)(C)O3)CC1 [Example 58] | 158
19 | CN1CCC(N(Cc2ccc(F)cc2F)C(=O)NCc2ccc3c(c2)OC(C)(C)C3)CC1 [Example 59] | 15.8
20 | CC(C)COc1ccc(CNC(=O)N(Cc2cc(F)ccc2F)C2CCN(C)CC2)cc1 [Example 63] | 79.4
